{"source": "patent US9463189B2", "about": "(BPV Holdings, LLC, priority 2007, dated 2016)", "origin": "cited, not measured here", "key": {"PPAR": {"test_system": "PPAR", "settings": "shown in US2006/0167012A1 and US2006/0205736A1; cited from earlier work"}, "[1]": {"test_system": "methionine- and choline-deficient diet model of NASH", "settings": "Nagasawa T et al., Eur. J. Pharmacol. (2006); cited from earlier work"}, "[2]": {"test_system": "genetically obese rodent model", "settings": "Gary-Bobo, M. et al., Hepatology 2007; cited from earlier work"}}, "note": "Structures can show the parent of a compound that is named as a salt.", "data": [{"smiles": "C[C@@H]1CN(c2ccc(OC(F)(F)F)cc2)C[C@H](C)N1S(=O)(=O)c1cccc2c1C[C@@H](C(=O)O)C2", "note": "[Compound 1, (S)-4-[cis-2,6-Dimethyl-4-(4-trifluoromethoxy-phenyl)-piperazine-1-sulfonyl]-indan-2-carboxylic acid tosylate]", "values": [{"measurement": "PPAR modulator activity", "setting": "PPAR", "value": "PPAR modulators"}]}, {"smiles": "Cc1cc(SCc2sc(-c3ccc(C(F)(F)F)cc3)nc2C)ccc1OCC(=O)O", "note": "[GW501516]", "values": [{"measurement": "fatty acid β-oxidation", "setting": "[1]", "value": "increased"}, {"measurement": "hepatic steatosis", "setting": "[1]", "value": "improved hepatic steatosis"}, {"measurement": "hepatic triglyceride deposition", "setting": "[1]", "value": "decreased"}, {"measurement": "inflammation", "setting": "[1]", "value": "decreased"}, {"measurement": "inflammatory cytokines or chemokines", "setting": "[1]", "value": "decreased"}, {"measurement": "number of activated hepatic stellate cells", "setting": "[1]", "value": "decreased"}]}, {"smiles": "Cc1c(C(=O)NN2CCCCC2)nn(-c2ccc(Cl)cc2Cl)c1-c1ccc(Cl)cc1", "note": "[rimonabant]", "values": [{"measurement": "outcome in genetically obese rodent model", "setting": "[2]", "value": "positive outcome"}]}]}
